Laboratory results reported in patent US20090155345A1, “METHODS FOR AFFECTING LIPOSOME COMPOSITION ULTRASOUND IRRADIATION” (BEN GURION UNIVERSITY OF THE NEGEV RESEARCH AND DEVELOPMENT …, priority 2005, published 2009).
Structures can show the parent of a compound that is named as a salt.

Columns and labels:
[1] = cited from earlier work
[2] = Chemical integrity of LFUS-irradiated drugs and lipids (HPLC, NMR, TLC); assay type: physicochemical; conditions: 20 kHz, 3.3 W/cm^2, 30 to 180 s; HPLC (doxorubicin, MPS), NMR (cisplatin)
Description: Thin layer gel chromatography (TLC) was used to determine if any chemical changes were induced in the liposome lipids by exposure to ultrasonic irradiation.
MPS concentration and chemical integrity were determined using HPLC (Hewlett Packard Liquid Chromatograph 1090). ChemStation software (Hewlett Packard) controlled all modules and was used for analysis of the chromatography data. The analytical column used was a C18 5-micron Econosphere, length 150 mm, inner diameter 4.6 mm (Alltech, Carnforth, UK). Sample injection volume was 20 μL. Eluent was monitored at a wavelength of 245 nm with a 10 nm bandwidth.
Experiments were performed on an INOVA 500-MHz spectrometer (Varian, Palo Alto, Calif.) using standard pulse sequences. The Pt chemical shifts were assigned relative to the external reference signal of K2PtCl4, set at −1,624 ppm.

C[C@H]1C[C@@H]2[C@H]([C@@H](O)C[C@@]3(C)[C@H]2CC[C@]3(O)C(=O)COC(=O)CCC(=O)O)[C@@]2(C)C=CC(=O)C=C12 [MPS, Methylprednisolone hemisuccinate sodium salt]
pKa [1]: 4.65

N.N.[Cl][Pt][Cl] [cisplatin, Cisplatin]
chemical changes of drug after LFUS [2]: does not induce any chemical changes

COc1cccc2c1C(=O)c1c(O)c3c(c(O)c1C2=O)C[C@@](O)(C(=O)CO)C[C@@H]3O[C@H]1C[C@H](N)[C@H](O)[C@H](C)O1 [doxorubicin, Doxorubicin-HCl]
chemical changes of drug after LFUS [2]: does not induce any chemical changes
